The subject of data set [1] is Homo sapiens. The data set can be described thus: Drug level in human assessed as retention time treated with 10 mg, po of [14C]peliglitazar by LC-MS and LC-MS/MS analysis. Type of data set: ADME, organism-based.
The subject of data set [2] is Homo sapiens. The data set can be described thus: Drug metabolism in human assessed as retention time of parent compound at 10 mg, po by LC-MS and LC-MS/MS analysis. Type of data set: ADME, organism-based. The settings on record: in vivo.

As for `COc1ccc(OC(=O)N(CC(=O)O)[C@@H](C)c2ccc(OCC(O)c3nc(-c4ccccc4)oc3C)cc2)cc1` (stereo not given in full), the Retention_time with Homo sapiens [1] is 46.8 min. With `Cc1oc(-c2ccccc2)nc1CCOc1ccc([C@H](C)N(CC(=O)O)C(=O)Oc2ccc(O)cc2)cc1`, the Retention_time in the data set on Homo sapiens [1] turned out to be 48.4 min. The same measure, in the same setting: under `COc1ccc(OC(=O)N(CC(=O)O)[C@@H](C)c2ccc(OCCc3nc(-c4ccccc4)oc3CO)cc2)cc1` stands 39.5 min; under `C[C@@H](c1ccc(OCCc2nc(-c3ccccc3)oc2CO)cc1)N(CC(=O)O)C(=O)Oc1ccc(O)cc1`, 27.6 min; under `Cc1oc(-c2ccccc2)nc1CCOc1ccc([C@H](C)N(CC(=O)O[C@@H]2O[C@H](C(=O)O)[C@@H](O)[C@H](O)[C@H]2O)C(=O)Oc2ccc(O)cc2)cc1`, 32.2 min.

Turning to `COc1ccc(OC(=O)N(CC(=O)O)[14C@@H](C)c2ccc(O[14CH2]Cc3nc(-c4ccccc4)oc3C)cc2)cc1`, in the data set on Homo sapiens [2], the Retention_time is 65.5 min.

Take `Cc1oc(-c2ccccc2)nc1CC(=O)O`: the Retention_time in the data set with Homo sapiens [1] is reported as 18.5 min. On the same count and under the same terms, the value for `COc1ccc(OC(=O)N(CC(=O)O)[C@@H](C)c2ccc(OCCc3nc(-c4ccc(O)cc4)oc3C)cc2)cc1` was 42.3 min; that for `Cc1oc(-c2ccccc2)nc1C(O)COc1ccc([C@H](C)N(CC(=O)O)C(=O)Oc2ccc(O)cc2)cc1` (stereo not given in full) was 32.1 min; that for `COc1ccc(OC(=O)N(CC(=O)O)[C@@H](C)c2ccc(O)cc2)cc1` was 21 min.

(Values after ChEMBL document CHEMBL3525981, “Metabolism and disposition of 14C-labeled peliglitazar in humans” (Drug Metab Dispos, 2011).)
